US5292733A, “Cephalosporin compounds” (Lucky Limited, priority 1991, dated 1994)
Converted amounts (≈) assume the structure as drawn.

Assays:
Experiment in all cases: Antibacterial activity MIC, two-fold agar dilution
Format in all cases: cell-based
[1] = system: Pseudomonas aeruginosa ATCC 10145; conditions: ATCC10145; Pseudomonas aeruginosa ATCC 10145; Muller-Hinton agar, 37° C., 20 hours; read-out: Antibacterial Activity MIC
Description: (§1) These MIC values were taken by employing a two-fold dilution method: that is, two-fold serial dilutions of each of the test compounds were made and dispersed in a Muller-Hinton agar medium; 2 μl of the standard test strain which had the 10^7 CFU(Colony Forming Unit) per ml was inoculated on the medium; and these were incubated at 37° C. for 20 hours. The results of the MIC tests are shown Table 1.

[2] = system: Staphylococcus aureus ATCC 10537; conditions: ATCC10537; Staphylococcus aureus ATCC 10537; Muller-Hinton agar, 37° C., 20 hours; read-out: Antibacterial Activity MIC
Description: as §1

[3] = system: Proteus vulgaris ATCC 6059; conditions: ATCC6059; Proteus vulgaris ATCC 6059; Muller-Hinton agar, 37° C., 20 hours; read-out: Antibacterial Activity MIC
Description: as §1

[4] = system: Micrococcus luteus ATCC 9341; conditions: ATCC9341; Micrococcus luteus ATCC 9341; Muller-Hinton agar, 37° C., 20 hours; read-out: Antibacterial Activity MIC
Description: as §1

[5] = system: Acinetobacter calcoaceticus ATCC 15473; conditions: ATCC15473; Acinetobacter calcoaceticus ATCC 15473; Muller-Hinton agar, 37° C., 20 hours; read-out: Antibacterial Activity MIC
Description: as §1

[6] = system: Bacillus cereus ATCC 11778; conditions: ATCC11778; Bacillus cereus ATCC 11778; Muller-Hinton agar, 37° C., 20 hours; read-out: Antibacterial Activity MIC
Description: as §1

[7] = system: Staphylococcus aureus ATCC 6538p; conditions: ATCC6538P; Staphylococcus aureus ATCC 6538p; Muller-Hinton agar, 37° C., 20 hours; read-out: Antibacterial Activity MIC
Description: as §1

[8] = system: Streptococcus faecalis ATCC 29212; conditions: Enterococcus faecalis, ATCC29212; Streptococcus faecalis ATCC 29212; Muller-Hinton agar, 37° C., 20 hours; read-out: Antibacterial Activity MIC
Description: as §1

[9] = system: Escherichia coli ATCC 25922; conditions: ATCC25922, Muller-Hinton agar, 37° C., 20 hours
Description: as §1

[10] = system: Enterobacter cloacae ATCC 27508; conditions: ATCC27508; Enterobacter cloacae ATCC 27508; Muller-Hinton agar, 37° C., 20 hours; read-out: Antibacterial Activity MIC
Description: as §1

[11] = system: Bacillus megaterium ATCC 9885; conditions: Priestia megaterium, ATCC9885; Bacillus megaterium ATCC 9885; Muller-Hinton agar, 37° C., 20 hours; read-out: Antibacterial Activity MIC
Description: as §1

[12] = system: Morganella morganii ATCC 8076h; conditions: ATCC8076H, Muller-Hinton agar, 37° C., 20 hours
Description: as §1

[13] = system: Klebsiella pneumoniae ATCC 10031; conditions: ATCC10031; Klebsiella pneumoniae ATCC 10031; Muller-Hinton agar, 37° C., 20 hours; read-out: Antibacterial Activity MIC
Description: as §1

[14] = system: Escherichia coli ATCC 10536; conditions: ATCC10536, Muller-Hinton agar, 37° C., 20 hours
Description: as §1

[15] = system: Salmonella typhimurium ATCC 14028; conditions: Salmonella enterica; Salmonella typhimurium ATCC 14028; Muller-Hinton agar, 37° C., 20 hours; read-out: Antibacterial Activity MIC
Description: as §1

[16] = system: Staphylococcus epidermidis ATCC 12228; conditions: ATCC12228; Staphylococcus epidermidis ATCC 12228; Muller-Hinton agar, 37° C., 20 hours; read-out: Antibacterial Activity MIC
Description: as §1

[17] = system: Providencia rettgeri ATCC 9250; conditions: ATCC9250, Muller-Hinton agar, 37° C., 20 hours
Description: as §1

[18] = system: Enterobacter aerogenes ATCC 29751; conditions: Klebsiella aerogenes, ATCC29751; Enterobacter aerogenes ATCC 29751; Muller-Hinton agar, 37° C., 20 hours; read-out: Antibacterial Activity MIC
Description: as §1

[19] = system: Pseudomonas aeruginosa ATCC 25619; conditions: ATCC25619; Pseudomonas aeruginosa ATCC 25619; Muller-Hinton agar, 37° C., 20 hours; read-out: Antibacterial Activity MIC
Description: as §1

[20] = system: Proteus mirabilis ATCC 25933; conditions: ATCC25933; Proteus mirabilis ATCC 25933; Muller-Hinton agar, 37° C., 20 hours; read-out: Antibacterial Activity MIC
Description: as §1

[21] = system: Shigella sonnei ATCC 11060; conditions: ATCC11060, Muller-Hinton agar, 37° C., 20 hours
Description: as §1

[22] = system: Serratia marcescens ATCC 27117; conditions: ATCC27117; Serratia marcescens ATCC 27117; Muller-Hinton agar, 37° C., 20 hours; read-out: Antibacterial Activity MIC
Description: as §1

[23] = system: Citrobacter freundii ATCC 8090; conditions: ATCC8090; Citrobacter freundii ATCC 8090; Muller-Hinton agar, 37° C., 20 hours; read-out: Antibacterial Activity MIC
Description: as §1

[24] = system: Pseudomonas aeruginosa ATCC 27853; conditions: ATCC27853; Pseudomonas aeruginosa ATCC 27853; Muller-Hinton agar, 37° C., 20 hours; read-out: Antibacterial Activity MIC
Description: as §1

[25] = system: Shigella flexneri ATCC 11836; conditions: ATCC11836, Muller-Hinton agar, 37° C., 20 hours
Description: as §1

Question: What does the source list for `C[n+]1c(SCC2=C(C(=O)[O-])N3C(=O)[C@@H](NC(=O)/C(=N\OC(C)(C)C(=O)O)c4csc(N)n4)[C@H]3SC2)cc(N)nc1N` [Compound I-1]?
Answer: MIC [1]: 2 mg/L (≈ 3.21 µM); MIC [2]: 4 mg/L (≈ 6.41 µM); MIC [3]: 0.31 mg/L (≈ 0.497 µM); MIC [4]: 0.5 mg/L (≈ 0.802 µM); MIC [5]: 4 mg/L (≈ 6.41 µM); MIC [6]: 128 mg/L (≈ 205 µM); MIC [7]: 8 mg/L (≈ 12.8 µM); MIC [8]: > 128 mg/L; MIC [9]: 0.13 mg/L (≈ 0.208 µM); MIC [10]: 0.016 mg/L (≈ 0.0257 µM); MIC [11]: 0.25 mg/L (≈ 0.401 µM); MIC [12]: ≤ 0.008 mg/L; MIC [13]: 0.031 mg/L (≈ 0.0497 µM); MIC [14]: 0.13 mg/L (≈ 0.208 µM); MIC [15]: 0.5 mg/L (≈ 0.802 µM); MIC [16]: 2 mg/L (≈ 3.21 µM); MIC [17]: ≤ 0.008 mg/L; MIC [18]: 2 mg/L (≈ 3.21 µM); MIC [19]: 1 mg/L (≈ 1.6 µM); MIC [20]: 0.31 mg/L (≈ 0.497 µM); MIC [21]: 0.25 mg/L (≈ 0.401 µM); MIC [22]: 0.13 mg/L (≈ 0.208 µM); MIC [23]: 0.13 mg/L (≈ 0.208 µM); MIC [24]: 1 mg/L (≈ 1.6 µM); MIC [25]: 0.031 mg/L (≈ 0.0497 µM)

Question: With `CC[n+]1c(SCC2=C(C(=O)[O-])N3C(=O)[C@@H](NC(=O)/C(=N\OC(C)(C)C(=O)O)c4csc(N)n4)[C@H]3SC2)cc(N)nc1N` [Compound I-2, (6R,7R)-7-[(Z)-2-(2-aminothiazol-4-yl)-2-(carboxyprop-2-oxyimino)acetamido]-3-(2,6-diamino-3-ethylpyrimidinium-4-yl)thiomethyl-3-cephem-4-carboxylate] as the molecule, how does the MIC [1] read?
Answer: The MIC was 1 mg/L (≈ 1.57 µM).

Question: What about the MIC [2] of the same molecule?
Answer: The MIC was 4 mg/L (≈ 6.27 µM).

Question: And the MIC [3]?
Answer: Its MIC is 0.13 mg/L (≈ 0.204 µM).

Question: What about the MIC [4] of the same molecule?
Answer: Its MIC is 0.5 mg/L (≈ 0.784 µM).

Question: And the MIC [5]?
Answer: Its MIC is 4 mg/L (≈ 6.27 µM).

Question: What about the MIC [6] of the same molecule?
Answer: The MIC was 64 mg/L (≈ 100 µM).

Question: What about the MIC [7] of the same molecule?
Answer: The MIC was 4 mg/L (≈ 6.27 µM).

Question: What about the MIC [8] of the same molecule?
Answer: Its MIC is greater than 128 mg/L.

Question: And the MIC [9]?
Answer: Its MIC is 0.063 mg/L (≈ 0.0988 µM).

Question: And the MIC [10]?
Answer: The MIC was 0.016 mg/L (≈ 0.0251 µM).

Question: And the MIC [11]?
Answer: Its MIC is 0.25 mg/L (≈ 0.392 µM).

Question: And the MIC [12]?
Answer: The MIC was no more than 0.008 mg/L.

Question: What about the MIC [13] of the same molecule?
Answer: Its MIC is 0.031 mg/L (≈ 0.0486 µM).

Question: And the MIC [14]?
Answer: Its MIC is 0.063 mg/L (≈ 0.0988 µM).

Question: And the MIC [15]?
Answer: The MIC was 0.5 mg/L (≈ 0.784 µM).

Question: And the MIC [16]?
Answer: Its MIC is 1 mg/L (≈ 1.57 µM).

Question: What about the MIC [17] of the same molecule?
Answer: Its MIC is no more than 0.008 mg/L.

Question: And the MIC [18]?
Answer: The MIC was 1 mg/L (≈ 1.57 µM).

Question: What about the MIC [19] of the same molecule?
Answer: Its MIC is 1 mg/L (≈ 1.57 µM).

Question: And the MIC [20]?
Answer: The MIC was 0.31 mg/L (≈ 0.486 µM).

Question: What about the MIC [21] of the same molecule?
Answer: Its MIC is 0.25 mg/L (≈ 0.392 µM).

Question: And the MIC [22]?
Answer: The MIC was 0.13 mg/L (≈ 0.204 µM).

Question: And the MIC [23]?
Answer: Its MIC is 0.13 mg/L (≈ 0.204 µM).

Question: What about the MIC [24] of the same molecule?
Answer: The MIC was 1 mg/L (≈ 1.57 µM).

Question: And the MIC [25]?
Answer: The MIC was 0.031 mg/L (≈ 0.0486 µM).

Question: For `CC(O/N=C(\C(=O)N[C@@H]1C(=O)N2C(C(=O)[O-])=C(CSc3cc(N)nc(N)[n+]3C)CS[C@H]12)c1csc(N)n1)C(=O)O` (stereo partly drawn) [Compound I-3, (6R,7R)-7-[(Z)-2-(2-aminothiazol-4-yl)-2-(R,S-carboxyeth-1-oxyimino)acetamido]-3-(2,6-diamino-3-methylpyrimidinium-4-yl)thiomethyl-3-cephem-4-carboxylate], which MIC [1] is on record?
Answer: The MIC was 1 mg/L (≈ 1.64 µM).

Question: What about the MIC [2] of the same molecule?
Answer: Its MIC is 4 mg/L (≈ 6.56 µM).

Question: And the MIC [3]?
Answer: Its MIC is 0.063 mg/L (≈ 0.103 µM).

Question: And the MIC [4]?
Answer: Its MIC is 0.5 mg/L (≈ 0.82 µM).

Question: What about the MIC [5] of the same molecule?
Answer: The MIC was 2 mg/L (≈ 3.28 µM).

Question: What about the MIC [6] of the same molecule?
Answer: Its MIC is 64 mg/L (≈ 105 µM).

Question: And the MIC [7]?
Answer: The MIC was 4 mg/L (≈ 6.56 µM).

Question: And the MIC [8]?
Answer: Its MIC is greater than 128 mg/L.

Question: What about the MIC [9] of the same molecule?
Answer: The MIC was 0.13 mg/L (≈ 0.213 µM).

Question: What about the MIC [10] of the same molecule?
Answer: The MIC was 0.016 mg/L (≈ 0.0262 µM).

Question: And the MIC [11]?
Answer: Its MIC is 0.25 mg/L (≈ 0.41 µM).

Question: And the MIC [12]?
Answer: The MIC was no more than 0.008 mg/L.

Question: What about the MIC [13] of the same molecule?
Answer: Its MIC is 0.031 mg/L (≈ 0.0508 µM).

Question: And the MIC [14]?
Answer: Its MIC is 0.13 mg/L (≈ 0.213 µM).

Question: And the MIC [15]?
Answer: Its MIC is 0.5 mg/L (≈ 0.82 µM).

Question: And the MIC [16]?
Answer: The MIC was 2 mg/L (≈ 3.28 µM).

Question: What about the MIC [17] of the same molecule?
Answer: The MIC was no more than 0.008 mg/L.

Question: What about the MIC [18] of the same molecule?
Answer: Its MIC is 2 mg/L (≈ 3.28 µM).

Question: What about the MIC [19] of the same molecule?
Answer: Its MIC is 1 mg/L (≈ 1.64 µM).

Question: What about the MIC [20] of the same molecule?
Answer: The MIC was 0.31 mg/L (≈ 0.508 µM).

Question: What about the MIC [21] of the same molecule?
Answer: The MIC was 0.25 mg/L (≈ 0.41 µM).

Question: What about the MIC [22] of the same molecule?
Answer: The MIC was 0.13 mg/L (≈ 0.213 µM).

Question: And the MIC [23]?
Answer: Its MIC is 0.13 mg/L (≈ 0.213 µM).

Question: What about the MIC [24] of the same molecule?
Answer: The MIC was 1 mg/L (≈ 1.64 µM).

Question: What about the MIC [25] of the same molecule?
Answer: The MIC was 0.031 mg/L (≈ 0.0508 µM).
